Experimental data: patent publication US20210388012A1, “METHODS AND COMPOSITIONS FOR PRODRUG FORMS OF SPECTINOMYCIN AND SPECTINAMIDE ANALOGS” (priority 2018, published 2021)
≈ marks a conversion by molar mass, not a printed value. Where two headings read alike, the source gives them in different places.

Experiments:
[1] = biological target: Mycobacterium smegmatis 70S bacterial ribosomes; assay: Ribosomal inhibition assay (luciferase-based protein synthesis inhibition); format: biochemical; settings: purified M. smegmatis 70S ribosomes, firefly luciferase mRNA
Method: In vitro activity was also assessed using a ribosomal inhibition assay. Briefly, luciferase-based protein synthesis inhibition assays were performed in translation reaction as described previously (Bruell, et al. Biochemistry. 2008 47 (34), 8828-8839), using purified Mycobacterium smegmatis 70S bacterial ribosomes and firefly luciferase mRNA prepared in vitro using T7 RNA polymerase. IC50 values represent the drug concentration that inhibits luciferase activity by 50%.

[2] = Pharmacokinetic study in rat; format: in vivo, Sprague-Dawley rats; settings: male, Sprague-Dawley, in vivo, iv, 10 mg/kg
Method: LC-MS Method 1. Quantitative determination of the amount of a disclosed compound present in blood, plasma, or urinary can be determined by LC-MS/MS methods. Briefly, a suitable method involves use of calibrants (0.976, 1.95, 3.91, 7.81, 15.63, 31.25, 62.5, 125, 250, 500, 1000 ng/mL) were in sample matrix (e.g., rat plasma, blood or urine). A separate solution of disclosed compound (independent of calibrants) is used to prepare quality controls. Appropriate volumes of working solutions are added to the sample matrix to yield the final concentrations of 1, 50, 1000 ng/mL. Linearity for calibrants in duplicate is assessed by subjecting the spiked concentrations and the respective peak areas to least-square linear regression analysis with and without intercepts, and a weighted least-square regression (1/x or 1/x^2). The lowest limit of quantitation (LLOQ) in the standard curve measured with acceptable accuracy and precision for a disclosed compound from rat plasma has been previously established as 0.976 ng/mL for a representative compound, 1810. All samples are precipitated by the addition of 4-volumes (100 μL) of IS, 1369 (10 ng/mL) in methanol to a volume (25 μL) of plasma/urine test sample. The samples are vortexed (Fisher scientific, USA) for 30 sec and centrifuged at 10,000×g for 10 min at 4° C. and the supernatants are collected for LC-MS/MS analysis. Chromatographic separation is carried out using a Shimadzu Nexera XR (LC-20ADXR) liquid chromatograph (Shimadzu Corporation, USA) consisting of two pumps, online degasser, system controller and an auto sampler. Mobile phase consisting of a) water with 1.6% nonafluoropentanoic acid and 0.7% formic acid b) 90% acetonitrile with 0.8% nonafluoropentanoic acid and 0.35% formic acid can be used at a flow rate of 0.5 rnLirnin in gradient mode. A Waters® Symmetry ® 3.5μ C8, 50×2.1 mm column (Waters, Milford, Mass.) is used for the separation. Samples (5 μL) are injected on column and the eluate is provided directly to an API 5500 triple quadruple mass spectrometer (Applied Biosystems, Foster City, Calif.) equipped with a turbospray ion source operated in the positive ion mode. The optimized multiple reactions monitoring (MRM) conditions for 3408 (549.2A207.1), 1810 (469.2^207.1) and IS (418.3^207.1) are monitored with a declustering potential of 45 V and collision energy of 25 eV. Data are acquired and processed with Analyst software version 1.6.2 (Applied Biosystems, Foster City, Calif.).
Pharmacokinetic assessment of the disclosed compounds can be determined in a rat model as described herein. Briefly, catheterized male Sprague-Dawley rats from Harlan Bioscience (Indianapolis, Ind.), weighing 200-250 g, are kept at a 12 h light/dark cycle with access to food and water ad libitum. The procedures are approved by the Institutional Animal Care and Use Committee of the University of Tennessee Health Science Center. Formulations of a disclosed compound are prepared in water (50%) and PlasniaLyte A (50%). Test compound can be administered either via intravenous route (10 mg/kg) via femoral vein catheter with the study conducted using a group of 6 rats. Blood (250 μL) was collected via the jugular vein catheter at 0.08, 0.25, 0.5, 0.75, 1, 1.5, 2, 4, 6, 8, 10, 24 and 48 h after drug administration. Plasma was immediately separated by centrifugation (6,000×g for 10 min at 4° C.) and stored at −70° C. until analysis. The plasma concentration was determined as described herein above in LC-MS Method 1, and plasma concentration-time courses were fitted to a non-compartmental model using Phoenix WinNonlin 7.0 (Certara L. P., Princeton, NJ). Area under the concentration-time profile curve (AUC) was calculated by the log trapezoidal rule by log-linear regression and extrapolated to infinity by addition of the value Ct/λZ, where Ct is the concentration at the last time point, and λZ the terminal slope (determined by linear regression) of the log concentration-time curve. […]

M. tuberculosis H37Rv = assay: Minimum inhibitory concentration (MIC), microbroth dilution; format: cell-based; settings: Mycobacterium tuberculosis, 168 h; M. tuberculosis H37Rv, 7 days, 37° C.; read-out: MIC (H37Rv)
[3] = Single ascending maximum tolerated dose study in rat; format: in vivo; settings: female, Sprague-Dawley, rat, in vivo, iv
Method: Several compounds were assessed in single ascending maximum tolerated studies. The compounds assessed were 1810; 3408, a prodrug form of compound 1810; 1599, a chloro homologue of compound 1810; and gentamicin, an antimicrobial associated with ototoxicity. The study was carried out in female Sprague-Dawley rats (n=3 per group). All the drug solutions were prepared in water and PLASMA-LYTE A (50:50; […] was obtained from Baxter Healthcare Corporation, Deerfield, Ill.). Each group of rats were fasted overnight with access to water aJ libitum and a fixed volume (2 mL) of drug-containing solution was administered via the jugular vein catheter. Food was withheld for 3 h post dosing. Different phases of the study were classified on five different speeds of i.v, administration; Phase 1: 5 sec, Phase 2: 30 sec, Phase 3: 5 min, Phase 4: 15 min, Phase 5: 30 min. In the first and second phases, a set of predefined dose levels: 10, 25, 50, 75, 100, 150, 300, 350, 400, 450 and 500 mg/kg. Escalation to the next higher dose was conditional upon absence of signs of acute toxicity following the immediate lower dose over a 24 h period. All animals were monitored by visual inspection focused on focus on changes in skin, fur, eyes, and also respiratory, circulatory, autonomic and central nervous systems, along with somatomotor activity and behavior pattern, including tremors, convulsions, salivation, diarrhea, lethargy, sleep and coma. A dose level was deemed an MTD if […] of acute toxicity were observed and that dose was chosen for the second phase of the study where the process was repeated to determine a toxic dose. For third, fourth and fifth phases, dosing solution was infused by a Instech tethering system (Instech Laboratories Inc., Plymouth Meeting, Pa.) where the animal is freely moving within its cage, the catheter connection is held in place by a vascular access harness and a swivel system, and the drug administration is performed via a Harvard Apparatus programmable syringe pump. After dosing, the tether was removed immediately after completion of the infusion and the catheter was flushed with (100 μL) PlasmaLyte A. Surviving animals from the previous dose with no signs of toxicity were re-used in either phases of these studies upon allowing a one day drug washout period.

[4] = tested on: M. tuberculosis Erdman (TMCC107); assay: Murine model of acute TB infection; format: in vivo; settings: BALB/c mice, subcutaneous injection 400 mg/kg daily, 12 consecutive days

## CN[C@@H]1[C@H](O)[C@H](NC)[C@H]2O[C@]3(O)[C@H](O[C@@H]2[C@H]1O)O[C@H](C)C[C@H]3NC(=O)Cc1ccc(O)cn1 [Compound 1810, 2-(5-hydroxypyridin-2-yl)-N-((2R,4R,4aS,5aR,6S,7S,8R,9S,9aR,10aS)-4a,7,9-trihydroxy-2-methyl-6,8-bis(methylamino)decahydro-2H-benzo[b]pyrano[2,3-e] [1,4]dioxin-4-yl)acetamide]
[1]
  IC50 (M. smegmatis): 0.84 µg/mL (≈ 1.79 µM)
[2]
  AUC: 22.0 mg·h/L
  CL: 0.463 L/h/kg
  Cmax: 47.0 mg/L
  Vss: 0.494 L/kg
  t½: 23.5 min
M. tuberculosis H37Rv
  MIC: 0.8 µg/mL (≈ 1.71 µM)
[3]
  MTD at 24 h: 200 to 350 mg/kg
[3]; female Sprague-Dawley rats, 5 second IV bolus, read-out: MTD
  MTD at 24 h: 200 mg/kg
[3]; female Sprague-Dawley rats, 30 second IV bolus, read-out: MTD
  MTD at 24 h: 200 mg/kg
[3]; female Sprague-Dawley rats, 5 minute IV infusion, read-out: MTD
  MTD at 24 h: 350 mg/kg
[3]; female Sprague-Dawley rats, 15 minute IV infusion, read-out: MTD
  MTD at 24 h: > 500 mg/kg
[4]
  Efficacy in mouse model of acute tuberculosis infection (lung CFU, FIG. 1): similarly active
